According to patent US7696357B2, “Stable hydrate of a muscarinic receptor antagonist” (Novartis International Pharmaceutical Ltd., priority 2002, dated 2010):

Experiment: storage stability / shelf life of the solid form
Assay type: physicochemical
Conditions: storage over time

SMILES	stability on storage (in words)	stability on storage (in words) (hydrate)	stability on storage (in words) (listed as solid hydrate, hydrate)
NC(=O)C(c1ccccc1)(c1ccccc1)[C@@H]1CCN(CCc2ccc3c(c2)CCO3)C1 [toluene solvate, (S)-2-{1-[2-(2,3-dihydrobenzofuran-5-yl)ethyl]-3-pyrrolidinyl}-2,2-diphenylacetamide toluene solvate]	not stable over medium to long term storage periods		
NC(=O)C(c1ccccc1)(c1ccccc1)[C@@H]1CCN(CCc2ccc3c(c2)CCO3)C1 [free base, (S)-2-{1-[2-(2,3-dihydrobenzofuran-5-yl)ethyl]-3-pyrrolidinyl}-2,2-diphenylacetamide, reference compound]	very unstable		
NC(=O)C(c1ccccc1)(c1ccccc1)[C@@H]1CCN(CCc2ccc3c(c2)CCO3)C1 [darifenacin hydrate, (S)-2-{1-[2-(2,3-dihydrobenzofuran-5-yl)ethyl]-3-pyrrolidinyl}-2,2-diphenylacetamide hydrate]		stable over long periods	remain stable for well over a year
